Assay results from ChEMBL document CHEMBL3600353, “In Vitro Activity of Epigallocatechin Gallate and Quercetin Alone and in Combination versus Clinical Isolates of Methicillin-Resistant Staphylococcus aureus” (2015).
Calls of active or inactive are those of the source.

Experiments:
[1] = test system: Staphylococcus aureus; test: Antibacterial activity against methicillin-resistant Staphylococcus aureus isolate 1 by disk diffusion assay; format: functional
[2] = test system: Staphylococcus aureus; test: Antibacterial activity against methicillin-resistant Staphylococcus aureus isolate 2 by disk diffusion assay; format: functional
[3] = test system: Staphylococcus aureus; test: Antibacterial activity against methicillin-resistant Staphylococcus aureus isolate 3 by disk diffusion assay; format: functional
[4] = test system: Staphylococcus aureus; test: Antibacterial activity against methicillin-resistant Staphylococcus aureus isolate 4 by disk diffusion assay; format: functional
[5] = test system: Staphylococcus aureus; test: Antibacterial activity against methicillin-resistant Staphylococcus aureus isolate 5 by disk diffusion assay; format: functional
[6] = test system: Staphylococcus aureus; test: Antibacterial activity against methicillin-resistant Staphylococcus aureus isolate 6 by disk diffusion assay; format: functional
[7] = test system: Staphylococcus aureus; test: Antibacterial activity against methicillin-resistant Staphylococcus aureus isolate 7 by disk diffusion assay; format: functional
[8] = test system: Staphylococcus aureus; test: Antibacterial activity against methicillin-resistant Staphylococcus aureus isolate 8 by disk diffusion assay; format: functional
[9] = test system: Staphylococcus aureus; test: Antibacterial activity against methicillin-resistant Staphylococcus aureus isolate 9 by disk diffusion assay; format: functional
[10] = test system: Staphylococcus aureus; test: Antibacterial activity against methicillin-resistant Staphylococcus aureus NCTC 12493 after 24 hrs by checkerboard assay; format: functional; conditions: NCTC 12493, 24 h
[11] = test system: Staphylococcus aureus; test: Antibacterial activity against methicillin-resistant Staphylococcus aureus isolate 1 after 24 hrs by checkerboard assay; format: functional; conditions: isolate 1, 24 h
[12] = test system: Staphylococcus aureus; test: Antibacterial activity against methicillin-resistant Staphylococcus aureus isolate 2 after 24 hrs by checkerboard assay; format: functional; conditions: isolate 2, 24 h
[13] = test system: Staphylococcus aureus; test: Antibacterial activity against methicillin-resistant Staphylococcus aureus isolate 3 after 24 hrs by checkerboard assay; format: functional; conditions: isolate 3, 24 h
[14] = test system: Staphylococcus aureus; test: Antibacterial activity against methicillin-resistant Staphylococcus aureus isolate 4 after 24 hrs by checkerboard assay; format: functional; conditions: isolate 4, 24 h
[15] = test system: Staphylococcus aureus; test: Antibacterial activity against methicillin-resistant Staphylococcus aureus isolate 5 after 24 hrs by checkerboard assay; format: functional; conditions: isolate 5, 24 h
[16] = test system: Staphylococcus aureus; test: Antibacterial activity against methicillin-resistant Staphylococcus aureus isolate 6 after 24 hrs by checkerboard assay; format: functional; conditions: isolate 6, 24 h
[17] = test system: Staphylococcus aureus; test: Antibacterial activity against methicillin-resistant Staphylococcus aureus isolate 7 after 24 hrs by checkerboard assay; format: functional; conditions: isolate 7, 24 h
[18] = test system: Staphylococcus aureus; test: Antibacterial activity against methicillin-resistant Staphylococcus aureus isolate 8 after 24 hrs by checkerboard assay; format: functional; conditions: isolate 8, 24 h
[19] = test system: Staphylococcus aureus; test: Antibacterial activity against methicillin-resistant Staphylococcus aureus isolate 9 after 24 hrs by checkerboard assay; format: functional; conditions: isolate 9, 24 h
[20] = test system: Staphylococcus aureus; test: Antibacterial activity against vancomycin-intermediate resistant Staphylococcus aureus Mu50 after 24 hrs by checkerboard assay; format: functional; conditions: Mu50, 24 h
[21] = test system: Staphylococcus aureus; test: Antibacterial activity against Staphylococcus aureus ATCC 25923 after 24 hrs by checkerboard assay; format: functional; conditions: ATCC 25923, 24 h
[22] = test system: Staphylococcus aureus; test: Antibacterial activity against methicillin-resistant Staphylococcus aureus NCTC 12493 assessed as reduction of epigallocatechin gallate MIC after 24 hrs by checkerboard assay in presence of quercetin; format: functional; conditions: NCTC 12493, 24 h
[23] = test system: Staphylococcus aureus; test: Antibacterial activity against methicillin-resistant Staphylococcus aureus isolate 1 assessed as reduction of epigallocatechin gallate MIC after 24 hrs by checkerboard assay in presence of quercetin; format: functional; conditions: isolate 1, 24 h
[24] = test system: Staphylococcus aureus; test: Antibacterial activity against methicillin-resistant Staphylococcus aureus isolate 2 assessed as reduction of epigallocatechin gallate MIC after 24 hrs by checkerboard assay in presence of quercetin; format: functional; conditions: isolate 2, 24 h
[25] = test system: Staphylococcus aureus; test: Antibacterial activity against methicillin-resistant Staphylococcus aureus isolate 3 assessed as reduction of epigallocatechin gallate MIC after 24 hrs by checkerboard assay in presence of quercetin; format: functional; conditions: isolate 3, 24 h
[26] = test system: Staphylococcus aureus; test: Antibacterial activity against methicillin-resistant Staphylococcus aureus isolate 4 assessed as reduction of epigallocatechin gallate MIC after 24 hrs by checkerboard assay in presence of quercetin; format: functional; conditions: isolate 4, 24 h
[27] = test system: Staphylococcus aureus; test: Antibacterial activity against methicillin-resistant Staphylococcus aureus isolate 5 assessed as reduction of epigallocatechin gallate MIC after 24 hrs by checkerboard assay in presence of quercetin; format: functional; conditions: isolate 5, 24 h
[28] = test system: Staphylococcus aureus; test: Antibacterial activity against methicillin-resistant Staphylococcus aureus isolate 6 assessed as reduction of epigallocatechin gallate MIC after 24 hrs by checkerboard assay in presence of quercetin; format: functional; conditions: isolate 6, 24 h
[29] = test system: Staphylococcus aureus; test: Antibacterial activity against methicillin-resistant Staphylococcus aureus isolate 7 assessed as reduction of epigallocatechin gallate MIC after 24 hrs by checkerboard assay in presence of quercetin; format: functional; conditions: isolate 7, 24 h
[30] = test system: Staphylococcus aureus; test: Antibacterial activity against methicillin-resistant Staphylococcus aureus isolate 8 assessed as reduction of epigallocatechin gallate MIC after 24 hrs by checkerboard assay in presence of quercetin; format: functional; conditions: isolate 8, 24 h
[31] = test system: Staphylococcus aureus; test: Antibacterial activity against methicillin-resistant Staphylococcus aureus isolate 9 assessed as reduction of epigallocatechin gallate MIC after 24 hrs by checkerboard assay in presence of quercetin; format: functional; conditions: isolate 9, 24 h
[32] = test system: Staphylococcus aureus; test: Antibacterial activity against vancomycin-intermediate resistant Staphylococcus aureus Mu50 assessed as reduction of epigallocatechin gallate MIC after 24 hrs by checkerboard assay in presence of quercetin; format: functional; conditions: Mu50, 24 h
[33] = test system: Staphylococcus aureus; test: Antibacterial activity against Staphylococcus aureus ATCC 25923 assessed as reduction of epigallocatechin gallate MIC after 24 hrs by checkerboard assay in presence of quercetin; format: functional; conditions: ATCC 25923, 24 h
[34] = test system: Staphylococcus aureus; test: Antibacterial activity against methicillin-resistant Staphylococcus aureus NCTC 12493 after 24 hrs by checkerboard assay in presence of quercetin; format: functional
[35] = test system: Staphylococcus aureus; test: Antibacterial activity against methicillin-resistant Staphylococcus aureus isolate 1 after 24 hrs by checkerboard assay in presence of quercetin; format: functional
[36] = test system: Staphylococcus aureus; test: Antibacterial activity against methicillin-resistant Staphylococcus aureus isolate 2 after 24 hrs by checkerboard assay in presence of quercetin; format: functional
[37] = test system: Staphylococcus aureus; test: Antibacterial activity against methicillin-resistant Staphylococcus aureus isolate 3 after 24 hrs by checkerboard assay in presence of quercetin; format: functional
[38] = test system: Staphylococcus aureus; test: Antibacterial activity against methicillin-resistant Staphylococcus aureus isolate 4 after 24 hrs by checkerboard assay in presence of quercetin; format: functional
[39] = test system: Staphylococcus aureus; test: Antibacterial activity against methicillin-resistant Staphylococcus aureus isolate 5 after 24 hrs by checkerboard assay in presence of quercetin; format: functional
[40] = test system: Staphylococcus aureus; test: Antibacterial activity against methicillin-resistant Staphylococcus aureus isolate 6 after 24 hrs by checkerboard assay in presence of quercetin; format: functional
[41] = test system: Staphylococcus aureus; test: Antibacterial activity against methicillin-resistant Staphylococcus aureus isolate 7 after 24 hrs by checkerboard assay in presence of quercetin; format: functional
[42] = test system: Staphylococcus aureus; test: Antibacterial activity against methicillin-resistant Staphylococcus aureus isolate 8 after 24 hrs by checkerboard assay in presence of quercetin; format: functional
[43] = test system: Staphylococcus aureus; test: Antibacterial activity against methicillin-resistant Staphylococcus aureus isolate 9 after 24 hrs by checkerboard assay in presence of quercetin; format: functional
[44] = test system: Staphylococcus aureus; test: Antibacterial activity against vancomycin-intermediate resistant Staphylococcus aureus Mu50 after 24 hrs by checkerboard assay in presence of quercetin; format: functional
[45] = test system: Staphylococcus aureus; test: Antibacterial activity against Staphylococcus aureus ATCC 25923 after 24 hrs by checkerboard assay in presence of quercetin; format: functional
[46] = test system: Staphylococcus aureus; test: Antibacterial activity against methicillin-sensitive Staphylococcus aureus ATCC 25923 at 0.56 mM after 4 hrs by time kill assay; format: functional, organism-based
[47] = test system: Staphylococcus aureus; test: Antibacterial activity against methicillin-resistant Staphylococcus aureus NCTC 12493 at 0.28 mM after 4 hrs by time kill assay; format: functional, organism-based
[48] = test system: Staphylococcus aureus; test: Antibacterial activity against vancomycin-intermediate resistant Staphylococcus aureus Mu50 at 0.56 mM after 4 hrs by time kill assay; format: functional, organism-based
[49] = test system: Staphylococcus aureus; test: Antibacterial activity against methicillin-sensitive Staphylococcus aureus ATCC 25923 after 24 hrs by time kill assay; format: functional, organism-based
[50] = test system: Staphylococcus aureus; test: Antibacterial activity against methicillin-resistant Staphylococcus aureus NCTC 12493 after 24 hrs by time kill assay; format: functional, organism-based
[51] = test system: Staphylococcus aureus; test: Antibacterial activity against vancomycin-intermediate resistant Staphylococcus aureus Mu50 after 24 hrs by time kill assay; format: functional, organism-based
[52] = test system: Staphylococcus aureus; test: Antibacterial activity against methicillin-sensitive Staphylococcus aureus ATCC 25923 at 0.56 mM after 24 hrs by time kill assay; format: functional, organism-based
[53] = test system: Staphylococcus aureus; test: Antibacterial activity against methicillin-resistant Staphylococcus aureus NCTC 12493 at 0.28 mM after 24 hrs by time kill assay; format: functional, organism-based
[54] = test system: Staphylococcus aureus; test: Antibacterial activity against vancomycin-intermediate resistant Staphylococcus aureus Mu50 at 0.56 mM after 24 hrs by time kill assay; format: functional, organism-based
[55] = test system: Staphylococcus aureus; test: Antibacterial activity against methicillin-resistant Staphylococcus aureus NCTC 12493 assessed as log reduction of colony forming unit at 0.28 mM after 2 hrs; format: functional, organism-based
[56] = test system: Staphylococcus aureus; test: Antibacterial activity against methicillin-resistant Staphylococcus aureus NCTC 12493 assessed as log reduction of colony forming unit at 0.28 mM after 4 hrs; format: functional, organism-based
[57] = test system: Staphylococcus aureus; test: Antibacterial activity against methicillin-resistant Staphylococcus aureus NCTC 12493 assessed as log reduction of colony forming unit at 0.28 mM after 24 hrs; format: functional, organism-based
[58] = test system: Staphylococcus aureus; test: Antibacterial activity against vancomycin-intermediate resistant Staphylococcus aureus Mu50 assessed as log reduction of colony forming unit at 0.28 mM after 24 hrs; format: functional, organism-based
[59] = test system: Staphylococcus aureus; test: Antibacterial activity against methicillin-sensitive Staphylococcus aureus ATCC 25923 at 0.56 mM after 24 hrs by time kill assay in presence of 0.85 mM of quercetin; format: functional, organism-based
[60] = test system: Staphylococcus aureus; test: Antibacterial activity against methicillin-sensitive Staphylococcus aureus ATCC 25923 at 0.56 mM after 24 hrs by time kill assay in presence of 0.42 mM of quercetin; format: functional, organism-based
[61] = test system: Staphylococcus aureus; test: Antibacterial activity against methicillin-sensitive Staphylococcus aureus ATCC 25923 at 0.28 mM after 24 hrs by time kill assay in presence of 0.42 mM of quercetin; format: functional, organism-based
[62] = test system: Staphylococcus aureus; test: Antibacterial activity against methicillin-sensitive Staphylococcus aureus ATCC 25923 at 0.28 mM after 24 hrs by time kill assay in presence of 0.2 mM of quercetin; format: functional, organism-based

O=C(O[C@@H]1Cc2c(O)cc(O)cc2O[C@@H]1c1cc(O)c(O)c(O)c1)c1cc(O)c(O)c(O)c1 [EPIGALOCATECHIN GALLATE]
280 µM: MIC [11] | MIC [12] | MIC [13] | MIC [14] | MIC [15] | MIC [16] | MIC [17] | MIC [18] | MIC [19] | MIC [20]
8 mm: inhibition zone (IZ) [1]
0.07: fractional inhibitory concentration index (FICI) [45]
20 µM: MIC [32] | MIC [33]
560 µM: MIC [21]
140 µM: MIC [10]
active: Activity [46] | Activity [47] | Activity [48] | Activity [49] | Activity [50] | Activity [51] | Activity [52] | Activity [53] | Activity [54] | Activity [55] | Activity [56] | Activity [57] | Activity [58] | Activity [59] | Activity [60] | Activity [61] | Activity [62]
70 µM: MIC [23] | MIC [25] | MIC [26] | MIC [27] | MIC [28] | MIC [29] | MIC [30] | MIC [31]
4 µM: MIC [22]
0.09: fractional inhibitory concentration index (FICI) [44]
0.28: fractional inhibitory concentration index (FICI) [38] | fractional inhibitory concentration index (FICI) [39] | fractional inhibitory concentration index (FICI) [43]
>=19 mm: inhibition zone (IZ) [2] | inhibition zone (IZ) [3] | inhibition zone (IZ) [4] | inhibition zone (IZ) [5] | inhibition zone (IZ) [6] | inhibition zone (IZ) [7] | inhibition zone (IZ) [8] | inhibition zone (IZ) [9]
40 µM: MIC [24]
0.06: fractional inhibitory concentration index (FICI) [34]
0.31: fractional inhibitory concentration index (FICI) [35] | fractional inhibitory concentration index (FICI) [37] | fractional inhibitory concentration index (FICI) [40] | fractional inhibitory concentration index (FICI) [41] | fractional inhibitory concentration index (FICI) [42]
0.2: fractional inhibitory concentration index (FICI) [36]
